The results in this text go back to article PMC11783400, “Assessment of Potential Drug–Drug Interactions for Novel Oral Melanocortin‐1 Receptor Agonist Dersimelagon” (Pharmacology Research & Perspectives, 2025).

One data set has as its target T1, OATP1B3 (Homo sapiens, UniProt Q9NPD5).
T1 construct: gene SLCO1B3; expressed in HEK293 cells
T1 sequence (Q9NPD5 1-702): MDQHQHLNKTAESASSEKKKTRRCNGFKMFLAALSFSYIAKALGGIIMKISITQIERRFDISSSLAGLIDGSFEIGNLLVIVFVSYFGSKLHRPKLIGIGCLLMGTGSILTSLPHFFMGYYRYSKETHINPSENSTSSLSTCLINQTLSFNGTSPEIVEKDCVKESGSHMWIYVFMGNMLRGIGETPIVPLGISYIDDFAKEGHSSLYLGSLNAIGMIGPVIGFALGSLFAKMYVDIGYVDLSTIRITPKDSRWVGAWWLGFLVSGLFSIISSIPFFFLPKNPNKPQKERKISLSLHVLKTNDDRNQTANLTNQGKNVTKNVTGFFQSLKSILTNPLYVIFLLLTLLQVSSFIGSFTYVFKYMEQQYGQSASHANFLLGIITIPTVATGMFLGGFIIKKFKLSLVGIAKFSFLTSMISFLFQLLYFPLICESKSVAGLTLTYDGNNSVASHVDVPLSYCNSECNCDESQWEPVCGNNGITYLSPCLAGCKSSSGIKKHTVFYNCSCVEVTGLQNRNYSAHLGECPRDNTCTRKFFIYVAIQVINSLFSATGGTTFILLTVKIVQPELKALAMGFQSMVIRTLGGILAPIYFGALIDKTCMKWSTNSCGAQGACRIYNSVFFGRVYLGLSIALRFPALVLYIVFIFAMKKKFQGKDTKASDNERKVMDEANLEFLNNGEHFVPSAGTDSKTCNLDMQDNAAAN
Description: uptake inhibition in HEK293 cells expressing the transporter. It is filed as cell-based. From the text: uptake inhibition in HEK293 cells expressing the transporter on OATP1B3

A further data set concerns the target T2, OAT1 (Homo sapiens, UniProt Q4U2R8).
T2 construct: gene SLC22A6; expressed in HEK293 cells
T2 sequence (Q4U2R8 1-563): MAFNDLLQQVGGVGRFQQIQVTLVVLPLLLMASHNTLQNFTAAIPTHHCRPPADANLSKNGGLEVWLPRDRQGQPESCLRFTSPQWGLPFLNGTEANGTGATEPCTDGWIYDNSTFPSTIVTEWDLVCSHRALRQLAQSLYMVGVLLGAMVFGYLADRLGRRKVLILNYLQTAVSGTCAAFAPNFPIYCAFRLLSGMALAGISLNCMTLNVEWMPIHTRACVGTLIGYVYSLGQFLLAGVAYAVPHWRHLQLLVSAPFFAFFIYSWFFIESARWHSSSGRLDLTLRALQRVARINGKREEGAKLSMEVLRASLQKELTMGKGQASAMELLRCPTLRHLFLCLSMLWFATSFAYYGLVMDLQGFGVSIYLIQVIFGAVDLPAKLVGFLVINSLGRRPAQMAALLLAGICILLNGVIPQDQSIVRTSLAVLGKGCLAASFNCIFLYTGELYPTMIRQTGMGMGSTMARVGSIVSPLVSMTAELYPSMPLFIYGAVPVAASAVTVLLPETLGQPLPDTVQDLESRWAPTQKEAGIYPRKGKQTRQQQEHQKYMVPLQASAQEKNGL
Described as above. It counts as cell-based. The source says:
uptake inhibition in HEK293 cells expressing the transporter on OAT1

Another data set deals with T3, CYP2B6 (Homo sapiens, UniProt P20813).
T3 construct: native enzyme in human liver microsomes
T3 sequence (P20813 1-491): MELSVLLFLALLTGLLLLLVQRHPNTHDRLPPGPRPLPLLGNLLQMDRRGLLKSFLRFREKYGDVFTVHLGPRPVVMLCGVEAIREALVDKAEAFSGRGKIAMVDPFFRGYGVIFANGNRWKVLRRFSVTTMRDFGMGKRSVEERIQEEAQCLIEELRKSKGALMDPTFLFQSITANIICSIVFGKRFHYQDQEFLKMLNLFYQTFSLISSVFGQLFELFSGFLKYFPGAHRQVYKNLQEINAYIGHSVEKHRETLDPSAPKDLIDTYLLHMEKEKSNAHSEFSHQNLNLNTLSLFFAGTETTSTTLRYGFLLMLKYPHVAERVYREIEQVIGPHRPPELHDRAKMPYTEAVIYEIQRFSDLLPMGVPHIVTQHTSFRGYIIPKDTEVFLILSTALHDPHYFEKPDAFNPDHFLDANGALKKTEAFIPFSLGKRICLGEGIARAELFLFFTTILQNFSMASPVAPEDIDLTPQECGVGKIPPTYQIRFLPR
Description: CYP activity inhibition in human liver microsomes. It is filed as biochemical. To be noted: read-out: IC50 (μM) / Direct inhibition. The source says: CYP activity inhibition in human liver microsomes on CYP2B6

The target of another data set is T4, MATE1 (Homo sapiens, UniProt Q96FL8).
T4 construct: gene SLC47A1; expressed in HEK293 cells
T4 sequence (Q96FL8 1-570): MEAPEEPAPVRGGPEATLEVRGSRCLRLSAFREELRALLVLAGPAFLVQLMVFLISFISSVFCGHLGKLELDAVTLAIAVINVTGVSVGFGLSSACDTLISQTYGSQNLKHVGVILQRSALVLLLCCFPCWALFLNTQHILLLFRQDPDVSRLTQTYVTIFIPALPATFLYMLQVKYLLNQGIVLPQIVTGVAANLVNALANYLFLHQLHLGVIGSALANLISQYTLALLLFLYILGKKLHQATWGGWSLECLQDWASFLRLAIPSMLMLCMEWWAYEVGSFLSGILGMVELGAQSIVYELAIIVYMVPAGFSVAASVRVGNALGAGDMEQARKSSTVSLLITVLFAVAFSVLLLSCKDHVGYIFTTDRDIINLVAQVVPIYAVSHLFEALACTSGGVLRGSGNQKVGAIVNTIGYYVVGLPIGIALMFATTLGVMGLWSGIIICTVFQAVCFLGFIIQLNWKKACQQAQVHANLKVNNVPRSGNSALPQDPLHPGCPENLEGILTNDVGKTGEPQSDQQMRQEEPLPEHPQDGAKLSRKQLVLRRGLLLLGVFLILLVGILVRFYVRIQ
Description: uptake inhibition in HEK293 cells expressing the transporter. It is filed as cell-based. From the text:
uptake inhibition in HEK293 cells expressing the transporter on MATE1

The structures appear in SMILES notation.

Regarding `COC[C@H]1CN(C(=O)[C@]2(F)CN(C3CCCC3)C[C@H]2c2ccc(OC)cc2)C[C@@H]1c1ccc(C(F)(F)F)cc1N1CCC(C(=O)O)CC1` [dersimelagon], the IC50 was determined as 0.0471 µM against OATP1B3, 71.2 µM against OAT1, 48.9 µM on CYP2B6 and 5.64 µM on MATE1.
